Data as given in US20070128217A1 (priority 2003, published 2007).

Tests used:
[1] = test system: antibodies in sera from SARS patients (sera 1a, 1b, 2, 6, 37, 62, London, SARS-yellow, SARS-green); format: binding, human; parameters: Binding of serum 6 to linear peptides of protein X1 of SARS-CoV Urbani / Binding of serum 37 to linear peptides of protein X1 of SARS-CoV Urbani / Binding of serum 6 to looped/cyclic peptide (PEPSCAN-ELISA) / Binding of serum 37 to looped/cyclic peptide (PEPSCAN-ELISA) / Binding of serum 37 to looped/cyclic peptides of protein X1 of SARS-CoV Urbani / Binding of serum 6 to linear peptides of protein X2 / Binding of serum 37 to linear peptides of protein X2 / Binding of serum 37 to looped/cyclic peptides of protein X2 of SARS-CoV Urbani / Binding of serum 6 to linear peptides of protein M of SARS-CoV Urbani / Binding of serum 37 to linear peptides of protein M of SARS-CoV Urbani / Binding of serum 6 to looped/cyclic peptides of protein M of SARS-CoV Urbani / Binding of serum 37 to looped/cyclic peptides of protein M of SARS-CoV Urbani / Binding of serum 6 to linear peptides of protein X3 of SARS-CoV Urbani / Binding of serum 37 to linear peptides of protein X3 of SARS-CoV Urbani / Binding of serum 37 to looped/cyclic peptides of protein X3 of SARS-CoV Urbani / Binding of serum 6 to linear peptides of protein X4 of SARS-CoV Urbani / Binding of serum 37 to linear peptides of protein X4 of SARS-CoV Urbani / Binding of serum 37 to looped/cyclic peptides of protein X4 of SARS-CoV Urbani / Binding of serum 6 to linear peptides of protein X5 of SARS-CoV Urbani / Binding of serum 37 to linear peptides of protein X5 of SARS-CoV Urbani / Binding of serum 37 to looped/cyclic peptides of protein X5 of SARS-CoV Urbani / Binding of serum 6 to linear peptides of protein N of SARS-CoV Urbani / Binding of serum 37 to linear peptides of protein N of SARS-CoV Urbani / Binding of serum 6 to linear peptide (PEPSCAN-ELISA) / Binding of serum 1a to looped/cyclic peptides of protein N of SARS-CoV Urbani / Binding of serum 1b to looped/cyclic peptides of protein N of SARS-CoV Urbani / Binding of serum 2 to looped/cyclic peptides of protein N of SARS-CoV Urbani / Binding of serum 6 to looped/cyclic peptides of protein N of SARS-CoV Urbani / Binding of serum 37 to looped/cyclic peptides of protein N of SARS-CoV Urbani / Binding of serum 62 to looped/cyclic peptides of protein N of SARS-CoV Urbani / Binding of serum London to looped/cyclic peptides of protein N of SARS-CoV Urbani / Binding of serum SARS-green to looped/cyclic peptides of protein N of SARS-CoV Urbani: unit not given here
[2] = test system: control sera (pooled serum of ten healthy LUMC hospital workers; commercial negative donor pooled serum from the Dutch bloodbank); format: binding, human; parameters: Binding of Control serum LUMC to linear peptides / Binding of Control serum Blood-bank to linear peptides / Binding of Control serum LUMC to looped peptides / Binding of Control Serum Blood-Bank to Looped peptides / Binding of Control serum LUMC to linear peptides of the protein M of SARS-CoV Urbani / Binding of Control serum Blood-bank to linear peptides of the protein M of SARS-CoV Urbani / Binding of Control serum LUMC to looped peptides of the protein M of SARS-CoV Urbani / Binding of Control Serum Blood-Bank to Looped peptides of the protein M of SARS-CoV Urbani: unit not given here
[3] = test system: rabbit serum obtained by immunizing a rabbit with the SARS-CoV strain Frankfurt 1; format: binding; parameters: Binding of a rabbit serum to linear peptides / Binding of a rabbit serum to looped peptides / Rabbit serum linear peptides / Rabbit serum looped peptides / Binding of a rabbit serum to linear peptides of protein N of SARS-CoV Urbani (Rabbit serum linear peptides) / Binding of a rabbit serum to looped/cyclic peptides of protein N of SARS-CoV Urbani (Rabbit serum looped peptides): unit not given here
[4] = test system: recombinant human anti-SARS-CoV antibody 03-018; format: binding; parameters: Binding of antibody 03-018 to linear peptides of the N protein of SARS-CoV Urbani / Binding of antibody 03-018 to looped/cyclic peptides of the N protein of SARS-CoV Urbani: unit not given here

Row | Sequence | Binding of serum 1a to linear peptides of protein N of SARS-CoV Urbani [1] | Binding of serum 1a to looped/cyclic peptides of protein N of SARS-CoV Urbani [1] | Binding of serum 1b to linear peptides of protein N of SARS-CoV Urbani [1] | Binding of serum 1b to looped/cyclic peptides of protein N of SARS-CoV Urbani [1] | Binding of serum 2 to linear peptides of protein N of SARS-CoV Urbani [1] | Binding of serum 2 to looped/cyclic peptides of protein N of SARS-CoV Urbani [1] | Binding of serum 6 to linear peptides of protein N of SARS-CoV Urbani [1] | Binding of serum 6 to looped/cyclic peptides of protein N of SARS-CoV Urbani [1] | Binding of serum 37 to linear peptides of protein N of SARS-CoV Urbani [1] | Binding of serum 37 to looped/cyclic peptides of protein N of SARS-CoV Urbani [1] | Binding of serum 62 to linear peptides of protein N of SARS-CoV Urbani [1] | Binding of serum 62 to looped/cyclic peptides of protein N of SARS-CoV Urbani [1] | Binding of serum London to linear peptides of protein N of SARS-CoV Urbani [1] | Binding of serum London to looped/cyclic peptides of protein N of SARS-CoV Urbani [1] | Binding of serum SARS-green to linear peptides of protein N of SARS-CoV Urbani [1] | Binding of serum SARS-green to looped/cyclic peptides of protein N of SARS-CoV Urbani [1] | Binding of serum SARS-yellow to linear peptides of protein N of SARS-CoV Urbani [1] | Binding of serum SARS-yellow to looped/cyclic peptides of protein N of SARS-CoV Urbani [1] | Binding of a rabbit serum to linear peptides of protein N of SARS-CoV Urbani (Rabbit serum linear peptides) [3] | Binding of a rabbit serum to looped/cyclic peptides of protein N of SARS-CoV Urbani (Rabbit serum looped peptides) [3] | further results
1 | LTYHGAIKLDDKDPQ | 0.2 | 0.3 | 0.1 | 0.1 | 0.2 | 0.3 | 0.2 | 0.1 | 0.6 | 0.5 | 1.0 | 0.3 | 0.5 | 0.4 | 0.2 | 0.1 | 0.7 | 0.4 | 0.1 | 0.5 | Control Serum Blood-Bank Looped peptides [2]: 0.5; Control serum Blood-bank linear peptides [2]: 0.7; Control serum LUMC linear peptides [2]: 0.6; Control serum LUMC looped peptides [2]: 0.5; Binding of antibody 03-018 to linear peptides of the N protein of SARS-CoV Urbani [4]: 0.1; Binding of antibody 03-018 to looped/cyclic peptides of the N protein of SARS-CoV Urbani [4]: 0.2
2 | MEVTPSGTWLTYHGA | 0.3 | 0.4 | 0.1 | 0.3 | 0.1 | 0.5 | 0.2 | 0.3 | 0.6 | 0.7 | 0.5 | 0.8 | 0.5 | 0.5 | 0.2 | 0.5 | 0.7 | 0.4 | 0.1 | 0.4 | Control Serum Blood-Bank Looped peptides [2]: 0.7; Control serum Blood-bank linear peptides [2]: 0.8; Control serum LUMC linear peptides [2]: 0.6; Control serum LUMC looped peptides [2]: 0.8; Binding of antibody 03-018 to linear peptides of the N protein of SARS-CoV Urbani [4]: 0.1; Binding of antibody 03-018 to looped/cyclic peptides of the N protein of SARS-CoV Urbani [4]: 0.2
3 | MKELSPRWYFYYLGT | 0.2 | 0.4 | 0.1 | 0.2 | 0.1 | 0.4 | 0.1 | 0.2 | 0.5 | 0.7 | 0.4 | 0.6 | 0.4 | 0.4 | 0.2 | 0.4 | 0.6 | 0.4 | 0.1 | 0.4 | Binding of Control Serum Blood-Bank to Looped peptides [2]: 0.7; Binding of Control serum Blood-bank to linear peptides [2]: 0.7; Binding of Control serum LUMC to linear peptides [2]: 0.6; Binding of Control serum LUMC to looped peptides [2]: 0.6; Binding of antibody 03-018 to linear peptides of the N protein of SARS-CoV Urbani [4]: 0.1; Binding of antibody 03-018 to looped/cyclic peptides of the N protein of SARS-CoV Urbani [4]: 0.2
4 | MSDNGPQSNQRSAPR | 0.2 | 0.2 | 0.1 | 0.1 | 0.2 | 0.4 | 0.2 | 0.3 | 0.6 | 0.4 | 0.6 | 0.4 | 0.5 | 0.4 | 0.3 | 0.4 | 0.5 | 0.1 | 0.1 | 0.4 | Binding of Control Serum Blood-Bank to Looped peptides [2]: 0.6; Binding of Control serum Blood-bank to linear peptides [2]: 0.6; Binding of Control serum LUMC to linear peptides [2]: 0.5; Binding of Control serum LUMC to looped peptides [2]: 0.5; Binding of antibody 03-018 to linear peptides of the N protein of SARS-CoV Urbani [4]: 0.1; Binding of antibody 03-018 to looped/cyclic peptides of the N protein of SARS-CoV Urbani [4]: 0.3
